Patent US20260124222A1, “ISOTHIAZOLYLCARBOXAMIDE COMPOUNDS AND THEIR USE IN THERAPY” (HOTSPOT THERAPEUTICS, INC., priority 2022, published 2026)

Target: T1, Avi-tagged FL MALT-1 (Homo sapiens, UniProt Q9UDY8)
T1 construct: Avi-tagged FL MALT-1 (Pharmaron, stored at −70° C.); Avi-tag; purchased Pharmaron
T1 sequence (Q9UDY8 1-824): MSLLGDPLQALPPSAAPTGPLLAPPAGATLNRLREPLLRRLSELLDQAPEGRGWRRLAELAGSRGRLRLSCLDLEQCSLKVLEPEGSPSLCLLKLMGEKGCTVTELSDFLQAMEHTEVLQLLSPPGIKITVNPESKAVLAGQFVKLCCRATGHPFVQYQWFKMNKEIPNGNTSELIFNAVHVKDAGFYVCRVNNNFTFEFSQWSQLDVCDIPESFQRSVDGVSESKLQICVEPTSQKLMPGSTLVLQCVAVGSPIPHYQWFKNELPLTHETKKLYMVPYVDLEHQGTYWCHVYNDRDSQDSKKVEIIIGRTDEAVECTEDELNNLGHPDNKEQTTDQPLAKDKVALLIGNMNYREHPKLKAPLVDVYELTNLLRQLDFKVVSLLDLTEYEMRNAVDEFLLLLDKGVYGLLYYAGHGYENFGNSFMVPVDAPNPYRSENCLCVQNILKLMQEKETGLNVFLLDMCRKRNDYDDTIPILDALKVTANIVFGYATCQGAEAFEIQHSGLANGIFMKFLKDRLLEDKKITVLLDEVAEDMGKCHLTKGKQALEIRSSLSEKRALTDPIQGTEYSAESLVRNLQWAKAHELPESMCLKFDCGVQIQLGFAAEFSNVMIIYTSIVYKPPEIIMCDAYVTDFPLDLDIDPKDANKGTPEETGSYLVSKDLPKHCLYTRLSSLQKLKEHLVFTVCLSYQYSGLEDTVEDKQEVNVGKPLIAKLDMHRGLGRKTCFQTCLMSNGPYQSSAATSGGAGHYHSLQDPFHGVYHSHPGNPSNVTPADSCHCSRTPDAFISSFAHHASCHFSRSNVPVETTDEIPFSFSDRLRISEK
Assay: MALT-1 Fluorogenic Peptide Cleavage Assay (MALT1 inhibition assay)
Type: biochemical
Settings: Ac-LRSR-AMC peptide substrate; 30 min pre-incubation, 90 min reaction at room temperature; fluorescence
Protocol: Inhibition of MALT1 activity by a small molecule was evaluated using MALT-1 Fluorogenic Peptide Cleavage Assay. The assay utilizes a quenched AMC-labelled peptide that contains the MALT-1 recognition sequence and cleavage site (LRSR). MALT-1 mediated cleavage of the peptide relieves the quenching and leads to an increase in fluorescence at excitation (342 nm) and emission (441 nm).
The following reagents were obtained commercially and used to prepare standard reagent formulations as further described below: N-2-hydroxyethylpiperazine-N-2-ethane sulfonic acid (HEPES) (1 M, pH 7.5, stored at 4° C.), sodium citrate (stored at RT), tris(2-carboxyethyl)phosphine hydrochloride (T-CEP) (500 mM, stored at −20° C.), ethylenediaminetetraacetic acid (EDTA) (500 mM, stored at RT), dimethylsulfoxide (DMSO, stored at RT), 3-[(3-cholamidopropyl)dimethylammonio]-1-propane sulphate (CHAPS) (stored at RT), dimethylsulfoxide (DMSO), DMSO (Fisher Scientific, stored at RT), Avi-tagged FL MALT-1 (Pharmaron, stored at −70° C.), Ac-LRSR-AMC Peptide (SM Biochemicals, stored at −20° C.), and ultrapure water (MILLI-Q®).
The standard reagent formulations used in this assay were prepared and stored as follows. A 1.1 M solution of sodium citrate (161.3 g, 500 mL) was prepared and stored at room temperature. A 10% (w/v) CHAPS solution (2.0 g, 20 mL) was prepared and stored at 4° C. A 500 mM HEPES solution having pH of 6.89 was prepared from 200 mL of a 1 M HEPES solution having a pH of 7.5 using concentrated hydrochloric acid and brought to a final volume of 400 mL with MILLI-Q© H2O. The substrate, 10 mM Ac-LRSR-AMC Peptide, was prepared (10 mg, 1.370 mL DMSO) and stored at −20° C.
Compounds were plated to provide a 2% DMSO final concentration using a ProxiPlate-384 Plus F Black 384-shallow well microplate. The assay-ready plates were equilibrated to room temperature. A reaction buffer (30 mL total volume) was prepared by combining HEPES (pH 6.89, 25 mM, 1.5 mL), sodium citrate (660 mM, 18.0 mL), T-CEP (1 mM, 0.06 mL), EDTA (0.1 mM, 0.06 mL), CHAPS (0.05%, 0.15 mL), DMSO (2%, 0.6 mL), and MILLI-Q® H2O (10.23 mL; 9.63 mL when backfilled to 2% DMSO) followed by thorough mixing.
MALT-1 was thawed and kept on ice. Peptide substrate was thawed on the bench under ambient conditions. A MALT-1 enzyme working stock was prepared from Avi-tagged FL MALT-1 (40 nM in a prepared reagent volume of […]) and the reaction buffer (13.0 mL). MALT1 working stock (5 μL) was added to each well of the microplate. MALT-1 was pre-incubated with compounds for 30 minutes at room temperature.
Two substrate working stocks (Km and 10×Km) were prepared. The 1×Km substrate was prepared from Ac-LRSR-AMC Peptide (50 μM in a prepared reagent volume of […]) and the reaction buffer (6.965 mL). The 10×Km substrate was prepared from Ac-LRSR-AMC Peptide ([…] in a prepared reagent volume of 196.0 μL) and the reaction buffer (6.804 mL). The reaction was initiated by the addition of substrate working stock (5 μL, 50 μM) to Km plates and the addition of substrate working stock (5 μL 280 μM) to 10×Km plates. The plates were covered and incubated on the bench at room temperature for 90 minutes.
Fluorescence intensity was determined using a CLARIOstar microplate reader (BMG LABTECH) using the optimised AMC mode. Before taking readings, a 70% gain was applied on the neutral control well. Compound data were normalised to % Inhibition and used to plot sigmoidal concentration response curves to yield various parameters including IC50.

Row | Compound | IC50 [µM]
1 | O=C(Nc1ccnc(C(F)(F)F)c1)c1snc(-c2cccc3ncsc23)c1C1CC1 [I-103] | ≤ 0.4
2 | CN(C)C(=O)c1ccc(NC(=O)c2snc(-c3ccccc3)c2C2CC2)cc1C(F)(F)F [I-55, 4-CYCLOPROPYL-N-(4-(DIMETHYL-CARBAMOYL)-3-(TRIFLUOROMETHYL) PHENYL)-3-PHENYLISOTHIAZOLE-5-CARBOXAMIDE] | ≤ 0.4
3 | COc1ccc2c(-c3nsc(C(=O)Nc4cnc(-n5nccn5)c(Cl)c4)c3C(F)(F)F)cccc2n1 [I-105] | ≤ 0.4
4 | CN1Cc2cc(NC(=O)c3snc(-c4ccccc4)c3C3CC3)cnc2C1=O [I-111] | > 2.5
5 | CN(C)C(=O)c1ccc(NC(=O)c2snc(-c3ccccc3)c2C2CC2)cc1Cl [I-21, N-(3-CHLORO-4-(DIMETHYLCARBAMOYL) PHENYL)-4-CYCLOPROPYL-3-PHENYLISOTHIAZOLE-5-CARBOXAMIDE] | ≤ 0.4
6 | O=C(Nc1cnc(-n2nccn2)c(C(F)F)c1)c1snc(-c2ccccc2)c1C1CC1 [I-13, 4-CYCLOPROPYL-N-(5-(DIFLUOROMETHYL)-6-(2H-1,2,3-TRIAZOL-2-YL)PYRIDIN-3-YL)-3-PHENYLISOTHIAZOLE-5-CARBOXAMIDE] | ≤ 0.4
7 | COc1cncc(NC(=O)c2snc(-c3ccccc3)c2C2CC2)c1 [I-44, 4-CYCLOPROPYL-N-(5-METHOXYPYRIDIN-3-YL)-3-PHENYLISOTHIAZOLE-5-CARBOXAMIDE] | > 2.5
8 | N#Cc1cncc(NC(=O)c2snc(-c3ccccc3)c2C2CC2)c1 [I-30, N-(5-CYANOPYRIDIN-3-YL)-4-CYCLOPROPYL-3-PHENYLISOTHIAZOLE-5-CARBOXAMIDE] | ≤ 0.4
9 | C=Cc1c(-c2ccccc2)nsc1C(=O)Nc1cnc(-n2nccn2)c(Cl)c1 [I-10, N-(5-CHLORO-6-(2H-1,2,3-TRIAZOL-2-YL) PYRIDIN-3-YL)-4-VINYL-3-PHENYLISOTHIAZOLE-5-CARBOXAMIDE] | ≤ 0.4
10 | CN(C)c1ccc(NC(=O)c2snc(-c3ccccc3)c2C2CC2)cn1 [I-46, 4-CYCLOPROPYL-N-(6-(DIMETHYLAMINO) PYRIDIN-3-YL)-3-PHENYLISOTHIAZOLE-5-CARBOXAMIDE] | > 2.5
11 | O=C(Nc1cnc(-n2nccn2)c(Cl)c1)c1snc(-c2cnc3ccccn23)c1C(F)(F)F [I-31] | ≤ 0.4
12 | O=C(Nc1cnc(-n2nccn2)c(Cl)c1)c1nsc(-c2ccccc2)c1C(F)(F)F [I-57, N-(5-CHLORO-6-(2H-1,2,3-TRIAZOL-2-YL) PYRIDIN-3-YL)-5-PHENYL-4-(TRIFLUOROMETHYL)ISOTHIAZOLE-3-CARBOXAMIDE] | ≤ 0.4
13 | COc1c(-c2ccccc2)nsc1C(=O)Nc1cnc(-n2nccn2)c(Cl)c1 [I-39, N-(5-CHLORO-6-(2H-1,2,3-TRIAZOL-2-YL) PYRIDIN-3-YL)-4-METHOXY-3-PHENYLISOTHIAZOLE-5-CARBOXAMIDE] | ≤ 0.4
14 | N#Cc1cc(NC(=O)c2snc(C3CCOC3)c2C2CC2)cnc1-n1nccn1 (stereo not shown) [I-115] | ≤ 0.4
15 | Cn1cc(-c2nsc(C(=O)Nc3cnc(-n4nccn4)c(C#N)c3)c2C(F)(F)F)cn1 [I-37, N-(5-CYANO-6-(2H-1,2,3-TRIAZOL-2-YL)PYRIDIN-3-YL)-3-(1-METHYL-1H-PYRAZOL-4-YL)-4-(TRIFLUORO-METHYL)ISOTHIAZOLE-5-CARBOXAMIDE] | 0.4 to 1
16 | Cc1cncc(NC(=O)c2snc(-c3ccccc3)c2C2CC2)c1 [I-45, 4-CYCLOPROPYL-N-(5-METHYLPYRIDIN-3-YL)-3-PHENYLISOTHIAZOLE-5-CARBOXAMIDE] | 1 to 2.5
17 | Cn1cccc(-c2nsc(C(=O)Nc3cnc(-n4nccn4)c(C#N)c3)c2C(F)(F)F)c1=O [I-108] | 1 to 2.5

Now from value to compound:

Row | IC50 [µM] | Compound
18 | ≤ 0.4 | O=C(Nc1ccnc(C(F)(F)F)c1)c1snc(-c2c(Cl)cncc2Cl)c1C1CC1 [I-187, 4-cyclopropyl-3-(3,5-dichloropyridin-4-yl)-N-(2-(trifluoromethyl)pyridin-4-yl)isothiazole-5-carboxamide]
19 | ≤ 0.4 | Cn1nnc2c(-c3nsc(C(=O)Nc4cnc(-n5nccn5)c(C#N)c4)c3C3CC3)cccc21 [I-127]
20 | ≤ 0.4 | O=C(Nc1ccnc(C(F)(F)F)c1)c1snc(-c2cccn3nccc23)c1C1CC1 [I-210, 4-cyclopropyl-3-(pyrazolo[1,5-a]pyridine-4-yl)-N-(2-(trifluoromethyl)pyridine-4-yl)isothiazole-5-carboxamide]
21 | 1 to 2.5 | Cn1cc(-c2nsc(C(=O)Nc3ccnc(C(F)(F)F)c3)c2C2CC2)cn1 [I-181, 4-cyclopropyl-3-(1-methyl-1H-pyrazol-4-yl)-N-(2-(trifluoromethyl)pyridin-4-yl)isothiazole-5-carboxamide]
22 | ≤ 0.4 | Cn1nnc2cccc(-c3nsc(C(=O)Nc4cnc(-n5nccn5)c(C#N)c4)c3C3CC3)c21 [I-120]
23 | ≤ 0.4 | O=C(Nc1ccnc(C(F)(F)F)c1)c1snc(-c2ccccc2F)c1C1CC1 [I-147, 4-cyclopropyl-3-(2-fluorophenyl)-N-[2-(trifluoromethyl)pyridine-4-yl]-1,2-thiazole-5-carboxamide]
24 | ≤ 0.4 | O=C(Nc1ccnc(C(F)(F)F)c1)c1snc(-c2ccc3cncn3c2)c1C1CC1 [I-194, 4-cyclopropyl-3-(imidazo[1,5-a]pyridin-6-yl)-N-(2-(trifluoromethyl)pyridin-4-yl)isothiazole-5-carboxamide]
25 | ≤ 0.4 | O=C(Nc1ccnc(C(F)(F)F)c1)c1snc(-c2cccc(F)c2)c1C1CC1 [I-195, 4-cyclopropyl-3-(3-fluorophenyl)-N-[2-(trifluoromethyl)pyridin-4-yl]-1,2-thiazole-5-carboxamide]
26 | ≤ 0.4 | O=C(Nc1ccnc(C(F)(F)F)c1)c1snc(-c2cccc3nccn23)c1C1CC1 [I-132, 4-cyclopropyl-3-(imidazo[1,2-a]pyridin-5-yl)-N-(2-(trifluoromethyl)pyridin-4-yl)isothiazole-5-carboxamide]
27 | 0.4 to 1 | Cn1cc2c(-c3nsc(C(=O)Nc4ccc(C(=O)N5CC(O)C5)c(Cl)c4)c3C3CC3)cccc2n1 [I-203, N-(3-chloro-4-(3-hydroxyazetidine-1-carbonyl)phenyl)-4-cyclopropyl-3-(2-methyl-2H-indazol-4-yl)isothiazole-5-carboxamide]
28 | ≤ 0.4 | O=C(Nc1ccnc(C(F)(F)F)c1)c1snc(-c2cncc(F)c2)c1C1CC1 [I-146, 4-cyclopropyl-3-(5-fluoropyridin-3-yl)-N-[2-(trifluoromethyl)pyridine-4-yl]-1,2-thiazole-5-carboxamide]
